{"source": "patent US20230058171A1", "about": "“NEW ORAL PHARMACEUTICAL COMPOSITION FOR CANCER THERAPY” (BOEHRINGER INGELHEIM INTERNATIONAL GMBH, priority 2021, published 2023)", "system": "patients with advanced or metastatic solid tumors", "experiment": "Trial 1403-0001 Phase Ia dose escalation, Arm A (D1 q3w): adverse events", "type": "in vivo", "excerpt": "Trial 1403-0001 was a first in human Phase Ia/Ib, open label, multicenter, dose-escalation study of the MDM2-antagonist of formula I in patients with advanced or metastatic solid tumors. The Phase Ia dose escalation part aimed to define the Maximum Tolerated Dose (MTD) and the Recommended Dose for Expansion (RDE) for the MDM2-antagonist of formula I based on safety and tolerability, pharmacokinetics, pharmacodynamics, and preliminary efficacy. The RDE will be further explored in the Phase Ib expansion part of the trial.\nFifty-four patients had been treated with the MDM2-antagonist of formula I in the Phase Ia dose escalation part of clinical trial 1403-0001. Twenty-nine patients were treated in Arm A (dosing regimen: dosing on Day 1 of a 21 days-cycle, D1 q3w) and twenty-five patients were treated in Arm B (dosing regimen: dosing on Day 1 and on Day 8 of a 28 days-cycle, D1 D8 q4w). Dose levels evaluated in Arm A were 10, 20, 30, 45, 50, 60, and 80 mg. Dose levels evaluated in Arm B (referring to the dose administered on Day 1 and Day 8) were 5, 10, 15, 20, 30, 45, and 60 mg.\nDuring the on-treatment period, all 29 patients were reported with adverse events (AEs). […] A total of 27 patients (93.1%) were reported with at least 1 AE judged to be related to the MDM2-antagonist of formula I by investigators.", "data": [{"smiles": "Cc1c(C(=O)O)ccc2c3n(nc12)[C@@H]1[C@H](C3)N(CC2CC2)[C@@]2(C(=O)Nc3cc(Cl)ccc32)[C@H]1c1cccc(Cl)c1F", "note": "[MDM2-antagonist of formula I, (2′S,3′S,3a'S,10a'S)-6-chloro-3′-(3-chloro-2-fluorophenyl)-1′-(cyclopropylmethyl)-6′-methyl-2-oxo-1,2,3′,3a′,10′,10a′-hexahydro-1′H-spiro[indole-3,2′-pyrrolo[2′,3′:4,5]pyrrolo[1,2-b]indazole]-7′-carboxylic acid]", "values": [{"measurement": "Serious AEs: Results in Death, %", "setting": "Arm A D1 q3w, 10 mg", "value": 0, "unit": "%"}, {"measurement": "Subjects with maximum CTC Grade 5, %", "setting": "Arm A D1 q3w, 10 mg", "value": 0, "unit": "%"}, {"measurement": "Serious AEs: Results in Death, %", "setting": "Arm A D1 q3w, 20 mg", "value": 0, "unit": "%"}, {"measurement": "Subjects with maximum CTC Grade 5, %", "setting": "Arm A D1 q3w, 20 mg", "value": 0, "unit": "%"}, {"measurement": "Serious AEs: Results in Death, %", "setting": "Arm A D1 q3w, 30 mg", "value": 0, "unit": "%"}, {"measurement": "Subjects with AEs leading to dose reduction of trial drug, %", "setting": "Arm A D1 q3w, 30 mg", "value": 33.3, "unit": "%"}, {"measurement": "Subjects with maximum CTC Grade 2, %", "setting": "Arm A D1 q3w, 30 mg", "value": 33.3, "unit": "%"}, {"measurement": "Subjects with maximum CTC Grade 3, %", "setting": "Arm A D1 q3w, 30 mg", "value": 66.7, "unit": "%"}, {"measurement": "Subjects with maximum CTC Grade 5, %", "setting": "Arm A D1 q3w, 30 mg", "value": 0, "unit": "%"}, {"measurement": "Patients with Dose limiting toxicity, %", "setting": "Arm A D1 q3w, 45 mg", "value": 33.3, "unit": "%"}, {"measurement": "Serious AEs: Results in Death, %", "setting": "Arm A D1 q3w, 45 mg", "value": 0, "unit": "%"}, {"measurement": "Subjects with AEs leading to dose reduction of trial drug, %", "setting": "Arm A D1 q3w, 45 mg", "value": 33.3, "unit": "%"}, {"measurement": "Subjects with maximum CTC Grade 3, %", "setting": "Arm A D1 q3w, 45 mg", "value": 33.3, "unit": "%"}, {"measurement": "Subjects with maximum CTC Grade 5, %", "setting": "Arm A D1 q3w, 45 mg", "value": 0, "unit": "%"}, {"measurement": "Serious AEs: Results in Death, %", "setting": "Arm A D1 q3w, 50 mg", "value": 0, "unit": "%"}, {"measurement": "Subjects with maximum CTC Grade 5, %", "setting": "Arm A D1 q3w, 50 mg", "value": 0, "unit": "%"}, {"measurement": "Serious AEs: Results in Death, %", "setting": "Arm A D1 q3w, 60 mg", "value": 0, "unit": "%"}, {"measurement": "Subjects with maximum CTC Grade 3, %", "setting": "Arm A D1 q3w, 60 mg", "value": 71.4, "unit": "%"}, {"measurement": "Subjects with maximum CTC Grade 5, %", "setting": "Arm A D1 q3w, 60 mg", "value": 0, "unit": "%"}, {"measurement": "Patients with Dose limiting toxicity, %", "setting": "Arm A D1 q3w, 80 mg", "value": 66.7, "unit": "%"}, {"measurement": "Serious AEs: Requires or Prolongs Hospitalization, %", "setting": "Arm A D1 q3w, 80 mg", "value": 33.3, "unit": "%"}, {"measurement": "Serious AEs: Results in Death, %", "setting": "Arm A D1 q3w, 80 mg", "value": 0, "unit": "%"}, {"measurement": "Subjects with maximum CTC Grade 2, %", "setting": "Arm A D1 q3w, 80 mg", "value": 33.3, "unit": "%"}, {"measurement": "Subjects with maximum CTC Grade 4, %", "setting": "Arm A D1 q3w, 80 mg", "value": 66.7, "unit": "%"}, {"measurement": "Subjects with maximum CTC Grade 5, %", "setting": "Arm A D1 q3w, 80 mg", "value": 0, "unit": "%"}, {"measurement": "Subjects with serious AEs, %", "setting": "Arm A D1 q3w, 80 mg", "value": 33.3, "unit": "%"}, {"measurement": "Serious AEs: Requires or Prolongs Hospitalization, %", "setting": "Arm A D1 q3w, Total", "value": 31.0, "unit": "%"}, {"measurement": "Serious AEs: Results in Death, %", "setting": "Arm A D1 q3w, Total", "value": 0, "unit": "%"}, {"measurement": "Subjects with AEs leading to Discontinuation of trial drug, %", "setting": "Arm A D1 q3w, Total", "value": 6.9, "unit": "%"}, {"measurement": "Subjects with maximum CTC Grade 5, %", "setting": "Arm A D1 q3w, Total", "value": 0, "unit": "%"}, {"measurement": "drug-related AE diarrhea, patients", "setting": "Arm A, all 29 patients", "value": 27.6, "unit": "%"}, {"measurement": "drug-related AE fatigue, patients", "setting": "Arm A, all 29 patients", "value": 41.1, "unit": "%"}, {"measurement": "drug-related AE nausea, patients", "setting": "Arm A, all 29 patients", "value": 72.4, "unit": "%"}, {"measurement": "drug-related AE platelet count decreased, patients", "setting": "Arm A, all 29 patients", "value": 37.9, "unit": "%"}, {"measurement": "drug-related AE vomiting, patients", "setting": "Arm A, all 29 patients", "value": 41.1, "unit": "%"}, {"measurement": "drug-related AE white blood cell count decreased, patients", "setting": "Arm A, all 29 patients", "value": 27.6, "unit": "%"}, {"measurement": "fatal AEs", "setting": "Arm A, all 29 patients", "value": "No fatal AEs were reported"}, {"measurement": "patients with DLTs during the MTD evaluation period (cycle 1)", "setting": "Arm A, all 29 patients", "value": 17.2, "unit": "%"}, {"measurement": "AE anemia, patients", "setting": "human, in vivo", "value": 41.4, "unit": "%"}, {"measurement": "AE back pain, patients", "setting": "human, in vivo", "value": 20.7, "unit": "%"}, {"measurement": "AE decreased appetite, patients", "setting": "human, in vivo", "value": 41.4, "unit": "%"}, {"measurement": "AE diarrhea, patients", "setting": "human, in vivo", "value": 34.5, "unit": "%"}, {"measurement": "AE fatigue, patients", "setting": "human, in vivo", "value": 51.7, "unit": "%"}, {"measurement": "AE nausea, patients", "setting": "human, in vivo", "value": 82.8, "unit": "%"}, {"measurement": "AE platelet count decreased, patients", "setting": "human, in vivo", "value": 37.9, "unit": "%"}, {"measurement": "AE vomiting, patients", "setting": "human, in vivo", "value": 48.3, "unit": "%"}, {"measurement": "AEs leading to Discontinuation: Other adverse event, %", "setting": "human, in vivo", "value": 3.4, "unit": "%"}, {"measurement": "Grade 3 AE platelet count decreased, patients", "setting": "human, in vivo", "value": 13.8, "unit": "%"}, {"measurement": "Grade 4 AE neutrophil count decreased, patients", "setting": "human, in vivo", "value": 10.3, "unit": "%"}, {"measurement": "SAE platelet count decreased, patients", "setting": "human, in vivo", "value": 6.9, "unit": "%"}, {"measurement": "Serious AEs: Cogenital Anomaly or Birth Defect, %", "setting": "human, in vivo", "value": 0, "unit": "%"}, {"measurement": "Serious AEs: Is Life Threatening, %", "setting": "human, in vivo", "value": 0, "unit": "%"}, {"measurement": "Serious AEs: Other Medically Important Serious Event, %", "setting": "human, in vivo", "value": 3.4, "unit": "%"}, {"measurement": "Serious AEs: Persists of Signif. Disability/Incapacity, %", "setting": "human, in vivo", "value": 0, "unit": "%"}, {"measurement": "Subjects with any AE, %", "setting": "human, in vivo", "value": 100, "unit": "%"}, {"measurement": "Subjects with investigator defined drug-related AEs, %", "setting": "human, in vivo", "value": 93.1, "unit": "%"}, {"measurement": "Subjects with maximum CTC Grade 1, %", "setting": "human, in vivo", "value": 3.4, "unit": "%"}, {"measurement": "Subjects with maximum CTC Grade 2, %", "setting": "human, in vivo", "value": 27.6, "unit": "%"}, {"measurement": "Subjects with maximum CTC Grade 3, %", "setting": "human, in vivo", "value": 51.7, "unit": "%"}, {"measurement": "Subjects with maximum CTC Grade 4, %", "setting": "human, in vivo", "value": 17.2, "unit": "%"}, {"measurement": "Subjects with serious AEs, %", "setting": "human, in vivo", "value": 31.0, "unit": "%"}, {"measurement": "dose reduction due to enterocolitis, patients", "setting": "human, in vivo", "value": 3.4, "unit": "%"}, {"measurement": "dose reduction due to nausea, patients", "setting": "human, in vivo", "value": 6.9, "unit": "%"}, {"measurement": "dose reduction due to neutropenia and/or thrombocytopenia, patients", "setting": "human, in vivo", "value": 20.7, "unit": "%"}, {"measurement": "drug-related AE anemia, patients", "setting": "human, in vivo", "value": 24.1, "unit": "%"}, {"measurement": "drug-related AE decreased appetite, patients", "setting": "human, in vivo", "value": 34.5, "unit": "%"}]}]}
